Legend:
[1] = molecular target: EGFR (Homo sapiens (Human), UniProt P00533); test: ErbB enzyme assay (CisBio HTRF KinEASE-TK), Assay 3; type: biochemical
In short: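 HTRF dual-wavelength read after 1 h detection; POC normalised to DMSO (100) and pre-quenched (0) controls, IC50 where 4-parameter curve crosses 50 POC. Reaction: 250 nM TK-substrate biotin, 1 mM ATP, pH 7.4 HEPES buffer with MgCl2, 30 min, 22 °C.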

[2] = molecular target: ErbB2 with Exon 20 YVMA insertion (HER2-YVMA) (Homo sapiens (Human), UniProt P04626, INS775YVMA); test: Cellular phosphorylation assay, constitutive ErbB2 phosphorylation (Y1196) in engineered NIH 3T3 cells, Assay 4; type: cell-based
In short: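 In-cell Western in NIH 3T3 cells carrying ErbB2 exon 20 YVMA insertion, with no ligand stimulation. One hour compound exposure at 37 °C before fixation and anti-pY1196 plus GAPDH staining with dual-wavelength fluorescence. IC50 derived after GAPDH normalization.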

[3] = molecular target: ErbB2 WT (Homo sapiens (Human), UniProt P04626); test: ErbB enzyme assay (CisBio HTRF KinEASE-TK), Assay 2; type: biochemical
In short: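 Readout is HTRF KinEASE-TK, using Sa-XL665 and cryptate antibody for 1 h at 22 °C, as percent of control between DMSO-only (100) and pre-quenched (0) reactions. The kinase reaction runs 30 min at 22 °C with 1 mM ATP and 250 nM biotinylated TK substrate, in HEPES pH 7.4 with MgCl2 and 2% DMSO.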

[4] = molecular target: MDR1 (P-gp) (Homo sapiens (Human), UniProt P08183); test: MDR1 transfected LLC-PK1 permeability/efflux, Assay 6; conditions: pig, LLC-PK1, Assay 6 Pe Ratio, efflux ratio Papp(B-A)/Papp(A-B), MDR1 transfected LLC-PK1
Procedure: Both MDR1 transfected LLC-PK1 (Assay 6) and MDR1 transfected MDCKII canine Mdr1 knockout cells (Assay 7) were cultured and plated according to manufacturer's recommendations with the exception that the passage media for the MDR1 transfected LLC-PK1 cell line contained only 2% fetal bovine serum so as to extend passage time out to seven days.
Both positive and negative controls were used to assess functionality of P-gp or BCRP efflux in the assays. Stock solutions for assay controls and the test article were prepared in DMSO for final test concentration of 1 μM. Final organic concentration in the assay was 1%. All dosing solutions contained 10 μM lucifer yellow to monitor MDCKII cell monolayer integrity.
For the apical to basolateral determination (A to B), 75 μL of the test article in transport buffer were added to the apical side of the individual transwells and 250 μL of basolateral media, without compound or lucifer yellow, were added to each well. For the basolateral to apical determination (B to A), 250 μL of test article in transport buffer were added to each well and 75 μL transport buffer, without compound or lucifer yellow, were added to each transwell. All tests were performed in triplicate, and each compound was tested for both apical to basolateral and basolateral to apical transport. The plates were incubated for 2 hours on a Lab-Line Instruments Titer Orbital Shaker (VWR, West Chester, PA) at 50 rpm and 37° C. with 5% CO2. All culture plates were removed from the incubator, 50 μL of media were removed from the apical and basolateral portion of each well, and added to 150 μL of 1 μM labetalol in 2:1 acetonitrile (ACN): H2O, v/v.
The plates were read using a Molecular Devices (Sunnyvale, CA) Gemini Fluorometer to evaluate the lucifer yellow concentrations at excitation/emission wavelengths of 425/535 nm. These values were accepted when found to be below 2% for apical to basolateral and 5% basolateral to apical flux across the MDR1-transfected LLC-PK1 or BCRP-transfected MDCKII cell monolayers. The plates were sealed, and the contents of each well analyzed by LC MS/MS. The compound concentrations were determined from the ratio of the peak areas of the compound to the internal standard (labetalol) in comparison to the dosing solution.
A MDS Sciex API 4000 (Applied Biosystems, Foster City, CA) mass spectrometer was used for detection of the analytes in the ion spray positive mode. Analyte responses were measured by multiple reaction monitoring (“MRM”) of transitions unique to each compound (the protonated precursor ion and selected product ions for each test article and m/z 329 to m/z 162 for labetalol, the internal standard.
The total run time, including re-equilibration, for a single injection was 1.2 minutes. […] The total run time, including re-equilibration, for a single injection was 0.61 minutes.
An efflux ratio is calculated from the mean apical to basolateral (A-B) Papp data and basolateral to apical (B-A) Papp data: Efflux ratio=Papp(B−A)/Papp(A−B)

[5] = molecular target: ErbB2 insYVMA (HER2-YVMA, SEQ ID NO: 2) (Homo sapiens, UniProt P04626, INS775YVMA/P1170A); test: biochemical; conditions: ErbB2 insYVMA enzyme assay; read-out: Assay 1 IC50
[6] = molecular target: EGFR wild type (EGFR WT) (Homo sapiens (Human), UniProt P00533); test: Cellular phosphorylation assay, EGF-stimulated EGFR phosphorylation in engineered NIH 3T3 cells, Phospho-EGFR DuoSet IC ELISA, Assay 5; type: cell-based
In short: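 Phospho-EGFR ELISA on lysates of engineered NIH 3T3 EGFR WT cells, IC50 derived from concentration curves. Cells plated at 20,000/well overnight, given compound dilutions 1 h at 37 °C, then rEGF 100 ng/ml for a further 10 min before lysis.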

Sequence of ErbB2 with Exon 20 YVMA insertion (HER2-YVMA) (P04626 other isoform, or with tags, fused parts or gaps ins YVMA behind 775): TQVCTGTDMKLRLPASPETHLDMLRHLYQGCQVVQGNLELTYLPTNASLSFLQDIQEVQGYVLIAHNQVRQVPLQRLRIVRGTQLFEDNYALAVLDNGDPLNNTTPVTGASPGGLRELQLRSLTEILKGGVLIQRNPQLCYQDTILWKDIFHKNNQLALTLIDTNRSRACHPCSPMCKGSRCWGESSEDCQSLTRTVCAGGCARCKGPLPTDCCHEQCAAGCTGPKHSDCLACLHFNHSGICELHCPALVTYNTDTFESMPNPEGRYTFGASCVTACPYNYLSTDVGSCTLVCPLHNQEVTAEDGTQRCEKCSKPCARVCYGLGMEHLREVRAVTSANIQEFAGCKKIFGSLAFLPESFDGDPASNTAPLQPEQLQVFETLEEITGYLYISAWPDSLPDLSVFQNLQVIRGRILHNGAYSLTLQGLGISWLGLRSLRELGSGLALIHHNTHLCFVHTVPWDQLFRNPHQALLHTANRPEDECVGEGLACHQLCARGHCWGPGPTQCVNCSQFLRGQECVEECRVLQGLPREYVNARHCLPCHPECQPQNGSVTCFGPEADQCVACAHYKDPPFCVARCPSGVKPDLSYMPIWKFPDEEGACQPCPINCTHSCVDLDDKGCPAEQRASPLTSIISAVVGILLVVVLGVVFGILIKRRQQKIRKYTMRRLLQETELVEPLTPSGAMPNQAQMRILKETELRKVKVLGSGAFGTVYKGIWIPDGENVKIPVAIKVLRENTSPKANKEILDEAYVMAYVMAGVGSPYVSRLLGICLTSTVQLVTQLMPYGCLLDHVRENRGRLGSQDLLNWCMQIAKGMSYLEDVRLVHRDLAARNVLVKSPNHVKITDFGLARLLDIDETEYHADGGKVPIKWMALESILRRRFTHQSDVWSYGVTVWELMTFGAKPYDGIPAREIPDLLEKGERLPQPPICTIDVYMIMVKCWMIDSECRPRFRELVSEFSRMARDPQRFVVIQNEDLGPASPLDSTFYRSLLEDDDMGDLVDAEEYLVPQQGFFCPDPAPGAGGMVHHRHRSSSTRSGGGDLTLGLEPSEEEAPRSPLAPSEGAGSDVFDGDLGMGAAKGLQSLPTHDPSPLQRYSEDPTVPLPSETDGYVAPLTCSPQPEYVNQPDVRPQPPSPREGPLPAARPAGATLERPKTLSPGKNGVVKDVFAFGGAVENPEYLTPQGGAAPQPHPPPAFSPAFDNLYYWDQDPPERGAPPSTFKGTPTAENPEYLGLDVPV
Sequence of MDR1 (P-gp) (P08183 whole entry): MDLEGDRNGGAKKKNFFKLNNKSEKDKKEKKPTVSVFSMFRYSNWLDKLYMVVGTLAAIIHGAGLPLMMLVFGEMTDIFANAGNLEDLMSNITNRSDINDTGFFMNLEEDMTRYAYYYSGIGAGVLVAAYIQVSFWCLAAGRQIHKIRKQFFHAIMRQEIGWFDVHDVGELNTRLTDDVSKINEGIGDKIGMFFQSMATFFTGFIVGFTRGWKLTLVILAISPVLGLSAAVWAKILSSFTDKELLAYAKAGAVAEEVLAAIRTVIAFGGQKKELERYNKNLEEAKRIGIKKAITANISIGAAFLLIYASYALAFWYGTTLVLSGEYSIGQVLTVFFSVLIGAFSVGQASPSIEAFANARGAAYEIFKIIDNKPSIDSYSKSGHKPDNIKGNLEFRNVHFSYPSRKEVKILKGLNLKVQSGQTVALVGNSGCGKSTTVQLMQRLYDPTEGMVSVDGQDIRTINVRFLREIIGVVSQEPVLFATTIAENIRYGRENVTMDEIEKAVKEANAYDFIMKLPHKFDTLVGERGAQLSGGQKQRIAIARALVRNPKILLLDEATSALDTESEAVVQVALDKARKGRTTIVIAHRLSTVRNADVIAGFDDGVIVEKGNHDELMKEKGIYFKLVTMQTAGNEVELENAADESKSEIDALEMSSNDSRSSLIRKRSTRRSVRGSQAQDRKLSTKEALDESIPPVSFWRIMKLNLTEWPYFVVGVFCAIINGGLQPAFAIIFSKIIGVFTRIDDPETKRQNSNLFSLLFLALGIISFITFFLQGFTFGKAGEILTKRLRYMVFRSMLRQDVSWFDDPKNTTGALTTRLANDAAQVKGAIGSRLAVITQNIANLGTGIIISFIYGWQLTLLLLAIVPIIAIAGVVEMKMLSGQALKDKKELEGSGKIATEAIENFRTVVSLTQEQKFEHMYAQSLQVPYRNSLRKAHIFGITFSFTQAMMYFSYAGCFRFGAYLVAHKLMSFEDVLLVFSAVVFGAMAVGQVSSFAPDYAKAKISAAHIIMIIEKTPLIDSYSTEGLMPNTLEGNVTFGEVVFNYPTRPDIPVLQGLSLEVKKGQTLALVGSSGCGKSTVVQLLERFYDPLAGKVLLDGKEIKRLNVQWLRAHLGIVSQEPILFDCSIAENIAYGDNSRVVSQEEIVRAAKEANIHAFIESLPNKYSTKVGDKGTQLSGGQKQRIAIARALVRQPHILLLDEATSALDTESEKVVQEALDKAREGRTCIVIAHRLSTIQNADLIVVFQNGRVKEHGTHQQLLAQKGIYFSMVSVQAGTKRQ
Sequence of ErbB2 WT (P04626 23-1255): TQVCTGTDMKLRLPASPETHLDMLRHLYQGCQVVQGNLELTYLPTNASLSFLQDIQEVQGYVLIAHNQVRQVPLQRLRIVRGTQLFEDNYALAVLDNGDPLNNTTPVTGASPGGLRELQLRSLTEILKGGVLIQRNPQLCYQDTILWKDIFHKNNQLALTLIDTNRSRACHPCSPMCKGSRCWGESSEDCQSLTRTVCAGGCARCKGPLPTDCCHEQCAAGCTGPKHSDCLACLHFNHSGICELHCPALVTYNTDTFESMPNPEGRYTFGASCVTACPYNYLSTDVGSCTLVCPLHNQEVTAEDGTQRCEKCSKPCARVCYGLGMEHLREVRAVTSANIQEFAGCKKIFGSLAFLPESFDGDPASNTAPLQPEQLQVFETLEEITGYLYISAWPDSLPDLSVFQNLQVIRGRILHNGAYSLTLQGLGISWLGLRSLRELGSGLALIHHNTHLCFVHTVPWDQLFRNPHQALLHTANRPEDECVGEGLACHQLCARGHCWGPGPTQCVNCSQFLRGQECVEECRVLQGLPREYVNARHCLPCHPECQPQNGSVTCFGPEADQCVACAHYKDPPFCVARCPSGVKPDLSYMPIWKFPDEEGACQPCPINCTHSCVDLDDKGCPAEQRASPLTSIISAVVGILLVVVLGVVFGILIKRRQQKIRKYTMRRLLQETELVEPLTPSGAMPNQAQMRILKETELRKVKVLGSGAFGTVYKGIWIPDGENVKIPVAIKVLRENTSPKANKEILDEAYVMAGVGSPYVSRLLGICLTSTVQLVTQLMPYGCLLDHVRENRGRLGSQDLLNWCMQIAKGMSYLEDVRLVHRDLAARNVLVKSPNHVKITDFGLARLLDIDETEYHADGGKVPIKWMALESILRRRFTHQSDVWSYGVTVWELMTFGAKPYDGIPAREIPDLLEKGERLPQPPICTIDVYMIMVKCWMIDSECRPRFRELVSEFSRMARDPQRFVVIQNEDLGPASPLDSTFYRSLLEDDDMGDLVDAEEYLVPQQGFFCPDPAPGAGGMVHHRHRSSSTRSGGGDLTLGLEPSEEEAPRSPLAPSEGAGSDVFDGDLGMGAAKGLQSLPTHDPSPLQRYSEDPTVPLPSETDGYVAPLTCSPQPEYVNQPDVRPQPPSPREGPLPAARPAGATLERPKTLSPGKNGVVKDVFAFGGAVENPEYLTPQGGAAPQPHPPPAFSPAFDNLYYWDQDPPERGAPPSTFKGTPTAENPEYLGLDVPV
Sequence of EGFR (P00533 25-1210): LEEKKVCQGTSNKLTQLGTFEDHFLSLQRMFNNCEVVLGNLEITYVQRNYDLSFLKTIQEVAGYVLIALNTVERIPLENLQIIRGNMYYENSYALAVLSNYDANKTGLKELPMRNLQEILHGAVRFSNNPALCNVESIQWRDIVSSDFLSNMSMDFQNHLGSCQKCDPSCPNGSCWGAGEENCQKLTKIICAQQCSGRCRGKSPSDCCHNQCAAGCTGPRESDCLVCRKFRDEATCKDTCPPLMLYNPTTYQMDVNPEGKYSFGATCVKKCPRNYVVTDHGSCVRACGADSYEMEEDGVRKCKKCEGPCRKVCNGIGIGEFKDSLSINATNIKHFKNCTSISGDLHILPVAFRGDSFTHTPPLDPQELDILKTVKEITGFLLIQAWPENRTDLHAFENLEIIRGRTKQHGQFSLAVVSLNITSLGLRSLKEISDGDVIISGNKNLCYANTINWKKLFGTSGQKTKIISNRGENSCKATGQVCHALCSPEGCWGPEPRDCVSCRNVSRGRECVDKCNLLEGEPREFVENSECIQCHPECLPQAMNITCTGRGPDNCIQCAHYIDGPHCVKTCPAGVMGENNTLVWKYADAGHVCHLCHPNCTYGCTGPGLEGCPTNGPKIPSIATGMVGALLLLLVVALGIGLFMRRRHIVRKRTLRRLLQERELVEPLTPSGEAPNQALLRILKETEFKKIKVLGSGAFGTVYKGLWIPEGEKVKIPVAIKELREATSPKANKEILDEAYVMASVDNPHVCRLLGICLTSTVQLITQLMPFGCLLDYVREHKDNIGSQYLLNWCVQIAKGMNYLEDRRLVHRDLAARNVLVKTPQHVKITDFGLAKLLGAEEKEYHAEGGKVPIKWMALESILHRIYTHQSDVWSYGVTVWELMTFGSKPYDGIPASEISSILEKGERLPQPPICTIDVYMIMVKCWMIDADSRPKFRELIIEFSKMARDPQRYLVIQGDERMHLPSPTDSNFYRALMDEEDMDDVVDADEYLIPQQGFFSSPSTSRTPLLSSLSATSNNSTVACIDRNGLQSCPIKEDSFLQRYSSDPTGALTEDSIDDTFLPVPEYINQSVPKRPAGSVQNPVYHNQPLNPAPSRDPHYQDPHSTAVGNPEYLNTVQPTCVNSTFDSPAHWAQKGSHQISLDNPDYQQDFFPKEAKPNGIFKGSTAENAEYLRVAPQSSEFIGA

## Cc1cc(Nc2ncnc3cnc(N4CC[C@H](C(C)(C)O)C4)nc23)ccc1Oc1ccc2c(c1)ncn2C [Example 126, (S)-2-(1-(8-((3-methyl-4-((1-methyl-1H-benzo[d]imidazol-5-yl)oxy)phenyl)amino)pyrimido[5,4-d]pyrimidin-2-yl)pyrrolidin-3-yl)propan-2-ol]
[1]
  IC50: ≥ 10000 nM
[2]
  IC50: 14.3 nM
[3]
  IC50: 18.3 nM
[4]
  efflux ratio at 2 h, 1 μM: 3.8
[5]
  IC50: 15.5 nM
[6]
  IC50: ≥ 5000 nM

## Cc1cc(Nc2ncnc3cnc(N[C@H]4CCOC4)nc23)ccc1Oc1ccc2c(c1)ncn2C [Example 17, (S)—N8-(3-methyl-4-((1-methyl-1H-benzo[d]imidazol-5-yl)oxy)phenyl)-N2-(tetrahydrofuran-3-yl)pyrimido[5,4-d]pyrimidine-2,8-diamine]
[1]
  IC50: 2350 nM
[2]
  IC50: 9.2 nM
[3]
  IC50: 6 nM
[4]
  efflux ratio at 2 h, 1 μM: 6.6
[5]
  IC50: 7 nM
[6]
  IC50: ≥ 5000 nM

## Cc1cc(Nc2ncnc3cnc(N4CCCC4=O)nc23)ccc1Oc1ccc2c(c1)ncn2C [Example 34, 1-(8-((3-methyl-4-((1-methyl-1H-benzo[d]imidazol-5-yl)oxy)phenyl)amino)pyrimido[5,4-d]pyrimidin-2-yl)pyrrolidin-2-one]
[1]
  IC50: ≥ 10000 nM
[2]
  IC50: 30.5 nM
[3]
  IC50: 307 nM
[4]
  efflux ratio at 2 h, 1 μM: 6.3
[5]
  IC50: 124 nM
[6]
  IC50: ≥ 5000 nM

## Cc1cc(Nc2ncnc3cnc(N4CCC(C)(O)CC4)nc23)ccc1Oc1ccc2c(c1)ncn2C [Example 209, 4-methyl-1-(8-((3-methyl-4-((1-methyl-1H-benzo[d]imidazol-5-yl)oxy)phenyl)amino)pyrimido[5,4-d]pyrimidin-2-yl)piperidin-4-ol]
[1]
  IC50: 9530 nM
[2]
  IC50: 11.7 nM
[3]
  IC50: 57.9 nM
[4]
  efflux ratio at 2 h, 1 μM: 3.3
[5]
  IC50: 29.2 nM
[6]
  IC50: ≥ 5000 nM

## Cc1cc(Nc2ncnc3cnc(N4CCOC(C(F)F)C4)nc23)ccc1Oc1ccc2c(c1)ncn2C (stereo not drawn) [Example 181, 6-(2-(difluoromethyl)morpholino)-N-(3-methyl-4-((1-methyl-1H-benzo[d]imidazol-5-yl)oxy)phenyl)pyrimido[5,4-d]pyrimidin-4-amine]
[1]
  IC50: ≥ 10000 nM
[2]
  IC50: 53.4 nM
[3]
  IC50: 171 nM
[4]
  efflux ratio at 2 h, 1 μM: 0.3
[5]
  IC50: 81.5 nM
[6]
  IC50: ≥ 5000 nM

## Cc1cc(Nc2ncnc3cnc(NCC(C)(C)C#N)nc23)ccc1Oc1ccc2c(c1)ncn2C [Example 200, 2,2-dimethyl-3-((8-((3-methyl-4-((1-methyl-1H-benzo[d]imidazol-5-yl)oxy)phenyl)amino)pyrimido[5,4-d]pyrimidin-2-yl)amino)propanenitrile]
[1]
  IC50: ≥ 10000 nM
[2]
  IC50: 14.9 nM
[3]
  IC50: 52.6 nM
[4]
  efflux ratio at 2 h, 1 μM: 8.1
[5]
  IC50: 18.6 nM
[6]
  IC50: 4520 nM

## Cc1cc(Nc2ncnc3cnc(N4CC[C@H](S(C)(=O)=O)C4)nc23)ccc1Oc1ccc2c(c1)ncn2C [Example 119, (S)—N-(3-methyl-4-((1-methyl-1H-benzo[d]imidazol-5-yl)oxy)phenyl)-6-(3-(methylsulfonyl)pyrrolidin-1-yl)pyrimido[5,4-d]pyrimidin-4-amine]
[1]
  IC50: 9320 nM
[2]
  IC50: 24.7 nM
[3]
  IC50: 30.7 nM
[4]
  efflux ratio at 2 h, 1 μM: 29.6
[5]
  IC50: 26.8 nM
[6]
  IC50: ≥ 5000 nM

## Cc1cc(Nc2ncnc3cnc(N4CCCC45COC5)nc23)ccc1Oc1ccc2c(c1)ncn2C [Example 230]
[1]
  IC50: 8560 nM
[2]
  IC50: 15.7 nM
[3]
  IC50: 29.2 nM
[4]
  efflux ratio at 2 h, 1 μM: 2.5
[5]
  IC50: 25.8 nM
[6]
  IC50: ≥ 5000 nM

## Cc1cc(Nc2ncnc3cnc(N4CCC(C)S4(=O)=O)nc23)ccc1Oc1ccc2c(c1)ncn2C (stereo not drawn) [Example 267]
[1]
  IC50: 3950 nM
[2]
  IC50: 4.1 nM
[3]
  IC50: 33.4 nM
[4]
  efflux ratio at 2 h, 1 μM: 6
[5]
  IC50: 34.3 nM
[6]
  IC50: ≥ 5000 nM

## CNc1ncc2ncnc(Nc3ccc(Oc4ccc5scnc5c4)c(C)c3)c2n1 [Example 50, N8-(4-(benzo[d]thiazol-5-yloxy)-3-methylphenyl)-N2-methylpyrimido[5,4-d]pyrimidine-2,8-diamine 2,2,2-trifluoroacetate]
[1]
  IC50: 363 nM
[2]
  IC50: 93.6 nM
[3]
  IC50: 11.4 nM
[4]
  efflux ratio at 2 h, 1 μM: 1.2
[5]
  IC50: 4.8 nM
[6]
  IC50: ≥ 5000 nM

## Cc1cc(Nc2ncnc3cnc(NCC(F)F)nc23)ccc1Oc1ccc2c(c1)ncn2C [Example 251]
[1]
  IC50: 1800 nM
[2]
  IC50: 6.6 nM
[3]
  IC50: 21.2 nM
[4]
  efflux ratio at 2 h, 1 μM: 2.3
[5]
  IC50: 11.7 nM
[6]
  IC50: ≥ 5000 nM

## Cc1cc(Nc2ncnc3cnc(N4C[C@@H]5CCCN5C4=O)nc23)ccc1Oc1ccc2c(c1)ncn2C [Example 254]
[1]
  IC50: ≥ 10000 nM
[2]
  IC50: 44 nM
[3]
  IC50: 114 nM
[4]
  efflux ratio at 2 h, 1 μM: 9.9
[5]
  IC50: 53.2 nM
[6]
  IC50: ≥ 5000 nM

## Cc1cc(Nc2ncnc3cnc(N4CCN(C)[C@@H](C)C4)nc23)ccc1Oc1ccc2c(c1)ncn2C [Example 280]
[1]
  IC50: ≥ 10000 nM
[2]
  IC50: 14.7 nM
[3]
  IC50: 78.2 nM
[4]
  efflux ratio at 2 h, 1 μM: 4
[5]
  IC50: 38.2 nM
[6]
  IC50: ≥ 5000 nM

## Cc1cc(Nc2ncnc3cnc(-c4ncco4)nc23)ccc1Oc1ccc2c(c1)ncn2C [Example 226]
[1]
  IC50: ≥ 10000 nM
[2]
  IC50: 65.4 nM
[3]
  IC50: 128 nM
[4]
  efflux ratio at 2 h, 1 μM: 3.2
[5]
  IC50: 92.7 nM
[6]
  IC50: ≥ 5000 nM

## Cc1cc(Nc2ncnc3cnc(NC4=NC(C)(C)CO4)nc23)ccc1Oc1ccc2c(c1)ncn2C [Example 32, N2-(4,4-dimethyl-4,5-dihydrooxazol-2-yl)-N8-(3-methyl-4-((1-methyl-1H-benzo[d]imidazol-5-yl)oxy)phenyl)pyrimido[5,4-d]pyrimidine-2,8-diamine]
[1]
  IC50: ≥ 10000 nM
[2]
  IC50: 13.4 nM
[3]
  IC50: 43.4 nM
[4]
  efflux ratio at 2 h, 1 μM: 34.5
[5]
  IC50: 34.6 nM
[6]
  IC50: ≥ 5000 nM

## Cc1cc(Nc2ncnc3cnc(N4CC[C@@H](S(C)(=O)=O)C4)nc23)ccc1Oc1ccc2c(c1)ncn2C [Example 125, (R)—N-(3-methyl-4-((1-methyl-1H-benzo[d]imidazol-5-yl)oxy)phenyl)-6-(3-(methylsulfonyl)pyrrolidin-1-yl)pyrimido[5,4-d]pyrimidin-4-amine]
[1]
  IC50: ≥ 10000 nM
[2]
  IC50: 32.4 nM
[3]
  IC50: 55.6 nM
[4]
  efflux ratio at 2 h, 1 μM: 36.1
[5]
  IC50: 24.8 nM
[6]
  IC50: ≥ 5000 nM

## Cc1cc(Nc2ncnc3cnc(NC45CC(C4)C5)nc23)ccc1Oc1ccc2c(c1)ncn2C [Example 18, N2-(bicyclo[1.1.1]pentan-1-yl)-N8-(3-methyl-4-((1-methyl-1H-benzo[d]imidazol-5-yl)oxy)phenyl)pyrimido[5,4-d]pyrimidine-2,8-diamine]
[1]
  IC50: ≥ 10000 nM
[2]
  IC50: 47.8 nM
[3]
  IC50: 167 nM
[4]
  efflux ratio at 2 h, 1 μM: 2.6
[5]
  IC50: 122 nM
[6]
  IC50: ≥ 5000 nM

## Cc1cc(Nc2ncnc3cnc(-c4cscn4)nc23)ccc1Oc1ccc2c(c1)ncn2C [Example 235]
[1]
  IC50: ≥ 10000 nM
[2]
  IC50: 5.6 nM
[3]
  IC50: 54.1 nM
[4]
  efflux ratio at 2 h, 1 μM: 2.9
[5]
  IC50: 74.5 nM
[6]
  IC50: ≥ 5000 nM

## Cc1cc(Nc2ncnc3cnc(N[C@H]4CN(C)C[C@H]4F)nc23)ccc1Oc1ccc2c(c1)ncn2C [Example 279]
[1]
  IC50: 4090 nM
[2]
  IC50: 1.2 nM
[3]
  IC50: 50.6 nM
[4]
  efflux ratio at 2 h, 1 μM: 16.6
[5]
  IC50: 25 nM
[6]
  IC50: ≥ 5000 nM

## Cc1cc(Nc2ncnc3cnc(N[C@@H]4CCNC[C@@H]4F)nc23)ccc1Oc1ccc2c(c1)ncn2C [Example 83, N2-((3S,4R)-3-fluoropiperidin-4-yl)-N8-(3-methyl-4-((1-methyl-1H-benzo[d]imidazol-5-yl)oxy)phenyl)pyrimido[5,4-d]pyrimidine-2,8-diamine]
[1]
  IC50: 5650 nM
[2]
  IC50: 20.3 nM
[3]
  IC50: 34.5 nM
[4]
  efflux ratio at 2 h, 1 μM: 76
[5]
  IC50: 12.4 nM
[6]
  IC50: ≥ 5000 nM

## CCNc1ncc2ncnc(Nc3ccc(Oc4ccc5c(ccn5C)c4)c(C)c3)c2n1 [Example 269]
[1]
  IC50: 2400 nM
[2]
  IC50: 20.7 nM
[3]
  IC50: 16.7 nM
[4]
  efflux ratio at 2 h, 1 μM: 2.4
[5]
  IC50: 12.1 nM
[6]
  IC50: ≥ 5000 nM

## Cc1cc(Nc2ncnc3cnc(N[C@@H]4CCOC4)nc23)ccc1Oc1ccc2c(c1)ncn2C [Example 275]
[1]
  IC50: 1650 nM
[2]
  IC50: 18 nM
[3]
  IC50: 16.5 nM
[4]
  efflux ratio at 2 h, 1 μM: 6
[5]
  IC50: 13.1 nM
[6]
  IC50: ≥ 5000 nM

Reference: US11834453B2, “Substituted pyrimido[5,4-d]pyrimidines as HER2 inhibitors” (Array BioPharma Inc., priority 2020, dated 2023)
